Test results taken from patent publication US20070167329A1, “Plant growth regulation” (Bayer CropScience GmbH, priority 2003, published 2007).

What was measured:
[1] = test system: wheat (Triticum aestivum, variety "TRISO"); test: Root growth assay, seed treatment, wheat; format: in vivo; set-up: key to Root Growth (Root Growth of "100" is set as the standard): relative root growth; 100 = standard (untreated control); conditions: for Root Growth (Root Growth of "100" is set as the standard): wet root weight 16 (±2) days post treatment; for effect as plant growth regulator in wheat: result in words, at various/different concentrations
Excerpt: (§1) Plant roots are a highly proliferative tissue that allows an easy accessible, cheap and short term screening method for plant growth regulators. The results obtained can easily be transferred to the overall effects on a plant of plant growth regulators identified by such a system. By using this root assay one is enabled to determine the effect of a seed treatment to root growth and/or germination and/or changes in habitat of germinated plants in order to identify the possible use as a yield enhancer. Two seeds of wheat (Triticum aestivum, variety “TRISO”) or 1 seed of maize (Zea mays, variety “LORENZO”) per hole in a plastic tray which contains an architecture of 8×13 holes were placed on compost soil covered with sand. These seeds were treated with 100 μl/hole, which creates an application volume of approx. 1200 l/ha, of a compound solution at active ingredient rates equivalent to 100, 10 and 1 g a.i./ha of each compound using an robotic application system (Lizzy Spray Robotics). Six replicates in a row of each compound and concentration were done. The outer rim of the above defined plastic tray was untreated to avoid false negative effects and the middle row (No. 7) was used as untreated control. The treated seeds were allowed to dry for approx. 4 hours and subsequently covered with sand and watered. The trays were stored in climate chambers with 14 hours lighting at a temperature of 24° C. (±2) at daytime and 16° C. (±2) at night and relative humidity (rH) of 60% and daily watered. Assessments were done 16 (±2) days post treatment by counting the germinated plants and assessing the phytotoxicity symptoms and percentage. In addition, the roots were washed out and the shoots were cut directly above the seed and the wet roots were placed on dry paper towels for approximately 30 minutes and weighted afterwards. This procedure provides a similar grade of moisture to the roots so that a comparison of the weights is possible.
(§2) The effects observed concerning Root Growth given in column 2 (Root Growth of “100” is set as the standard) are directed to concentrations that are equivalent to 100, 10, 1 g a.i./ha, each.

[2] = test system: maize (Zea mays, variety "LORENZO"); test: Root growth assay, seed treatment, maize; format: in vivo; conditions: for Root Growth (Root Growth of "100" is set as the standard): wet root weight 16 (±2) days post treatment; for effect as plant growth regulator in maize: result in words
Excerpt: as §1, §2

Row | SMILES | Root Growth (Root Growth of "100" is set as the standard) ([1]; 1 g a.i./ha) | Root Growth (Root Growth of "100" is set as the standard) ([1]; 10 g a.i./ha) | Root Growth (Root Growth of "100" is set as the standard) ([1]; 100 g a.i./ha) | effect as plant growth regulator in wheat [1] | Root Growth (Root Growth of "100" is set as the standard) ([2]; 1 g a.i./ha) | Root Growth (Root Growth of "100" is set as the standard) ([2]; 10 g a.i./ha) | Root Growth (Root Growth of "100" is set as the standard) ([2]; 100 g a.i./ha) | effect as plant growth regulator in maize [2] | melting point
1 | N#Cc1ccc(Nc2nc(N)c(C(=O)c3cccnc3)s2)cc1 [Compound 1.108] | 78 | 95 | 131 | superior effect |  |  |  |  | 
2 | Nc1nc(Nc2cccc(C(F)(F)F)c2)sc1C(=O)c1ccc(OC(F)F)cc1 [Compound 1.58] | 123 | 112 | 103 | superior effects | 91 | 107 | 105 | superior effects | 
3 | Nc1nc(Nc2ccccc2)sc1C(=O)c1ccc(OC(F)F)cc1 [Compound 1.53] | 125 | 107 | 101 | superior effects | 91 | 85 | 108 | superior effects | 
4 | Nc1nc(NCC2CCCCC2)sc1C(=O)C(Cc1ccccc1)NC(=O)OCc1ccccc1 (stereo not shown) [Compound 1.139] | 130 | 66 | 120 |  |  |  |  |  | 
5 | Nc1nc(Nc2ccccc2)sc1C(=O)c1cccs1 [Compound 1.79] | 88 | 88 | 73 |  | 108 | 116 | 105 | superior effect | 
6 | COc1ccc(Nc2nc(N)c(C(=O)c3cccnc3)s2)cc1 [Compound 1.106] | 145 | 99 | 90 | superior effect |  |  |  |  | 
7 | CSc1ccc(Nc2nc(N)c(C(=O)c3cccnc3)s2)cc1 [Compound 1.117] | 111 | 126 | 125 |  |  |  |  |  | 
8 | Nc1nc(Nc2cccnc2)sc1C(=O)c1ccc(OC(F)F)cc1 [Compound 1.60, [4-Amino-2-(pyridin-3-yl-amino)-thiazol-5-yl]-(4-difluoromethoxyphenyl)-methanone] | 98 | 57 | 54 |  | 191 | 105 | 109 | superior effect | 143 °C
9 | Nc1nc(Nc2ccc(OC(F)(F)F)cc2)sc1C(=O)c1cccnc1 [Compound 1.118] | 95 | 122 | 113 |  |  |  |  |  | 
10 | Nc1nc(Nc2ccccc2)sc1C(=O)c1cccnc1 [Compound 1.105] | 72 | 99 | 123 | superior effect |  |  |  |  | 
